From patent US20250353873A1, “COMPOUNDS AND METHODS FOR MODULATING APOE EXPRESSION” (Ionis Pharmaceuticals, Inc., priority 2024, published 2025)
Strand notation (5' to 3'): a small letter for the sugar, then the base; units joined by * are phosphorothioate-linked, units joined directly phosphodiester-linked; [ ] holds rarer units or linkages, { } end groups; capitals alone tell only the bases. [ms] = mesyl phosphoramidate linkage; e = 2'-O-(2-methoxyethyl) (MOE); k = constrained ethyl (cEt); [5mC] = 5-methylcytosine; d = 2'-deoxy (DNA)

Tests used:
human APOE RNA [1] = assay: Activity in APOE C57BL/6NTac-Apoeem7250 knock-in mice, single ICV bolus, 8 weeks (Example 11); format: in vivo; details: for APOE RNA (% control) Cortex / APOE RNA (% control) Spinal Cord: single ICV bolus 300 μg, 8 weeks post treatment, normalized to mouse Ppia
Procedure: Modified oligonucleotides described above were tested in the APOE C57BL/6NTac-Apoeem7250 knock-in mouse model described above.
Each mouse received a single ICV bolus of 300 μg of modified oligonucleotide. A group of 3-4 mice received a single ICV bolus with PBS as a negative control.
Eight weeks post treatment, mice were sacrificed and RNA was extracted from cortical brain tissue and spinal cord for quantitative real-time RT-PCR analysis of RNA expression of APOE using human primer probe set RTS3073 (described herein above). APOE RNA levels were normalized to mouse Ppia. Mouse Ppia was amplified using primer probe set m_cyclo24 (described herein above). Results are presented as percent human APOE RNA relative to the amount of human APOE RNA in PBS treated animals, (% control). Each experiment is identified in separate tables below.

human APOE RNA [2] = assay: Activity in APOE C57BL/6NTac-Apoeem7250 knock-in mice, single ICV bolus, 16 weeks (Example 12); format: in vivo; details: single ICV bolus 300 μg, 16 weeks post treatment, normalized to mouse Ppia
In short: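 A single 300 μg intracerebroventricular dose was given, with PBS-treated mice as reference; cortical and spinal cord tissue was taken 16 weeks later. RT-qPCR quantified human APOE RNA, Ppia-normalized, expressed relative to PBS animals (% control).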

Row | Substance | APOE RNA (% control) Cortex (human APOE RNA [1]) [% control] | APOE RNA (% control) Spinal Cord (human APOE RNA [1]) [% control] | APOE RNA (% control) Cortex (human APOE RNA [2]; cortex) [% control] | APOE RNA (% control) Spinal Cord (human APOE RNA [2]; spinal cord) [% control] | reduction of human APOE RNA in the cortex (human APOE RNA [1]; APOE knock-in mouse model, 8 weeks post administration, assay of Example 11) [%]
1 | 1693052: 5-10-5 MOE gapmer TTGGTGAATCTTTATTAAAC, linkages sossszzzsssssssosss (antisense eT*eTeG*eG*eT*dG[ms]dA[ms]dA[ms]dT*d[5mC]*dT*dT*dT*dA*dT*eTeA*eA*eA*e[5mC]) [compound 1693052] | 65 | 79 | 91 | 85 | 
2 | 1810069: mixed MOE/cEt gapmer CTTGGTGAATCTTTATTAAAC, sugar eeeeekddddddddddeeeee, linkages zsossszzzssssszsoosz (e[5mC][ms]eT*eTeG*eG*kT*dG[ms]dA[ms]dA[ms]dT*d[5mC]*dT*dT*dT*dA[ms]dT*eTeAeA*eA[ms]e[5mC]) [compound 1810069] | 24 | 27 |  |  | 
3 | 1809818 (eT*eTeGkG*dT*dG[ms]dA[ms]dA[ms]dT*d[5mC]*dT*dT*dT*dA[ms]kT*kTeAeA*eA*e[5mC]; antisense) [Compound 1809818] | 42 | 36 |  |  | 
4 | 1652911: 5-10-5 MOE gapmer GGTGAATCTTTATTAAACTA, linkages sooosszzzssssssooss (antisense eG*eGeTeGeA*dA*dT[ms]d[5mC][ms]dT[ms]dT*dT*dA*dT*dT*dA*eAeAe[5mC]*eT*eA) [compound 1652911] | 130 | 57 |  |  | 
5 | 1652907: 5-10-5 MOE gapmer GGTGAATCTTTATTAAACTA, linkages soooszzssssssssooss (antisense eG*eGeTeGeA*dA[ms]dT[ms]d[5mC]*dT*dT*dT*dA*dT*dT*dA*eAeAe[5mC]*eT*eA) [compound 1652907] | 54 | 16 |  |  | 
6 | 1809688: mixed MOE/cEt gapmer CTTGGTGAATCTTTATTAA, sugar eeeekddddddddddkkee, linkages sosssszzzssssszoss (e[5mC]*eTeT*eG*kG*dT*dG[ms]dA[ms]dA[ms]dT*d[5mC]*dT*dT*dT*dA[ms]kTkT*eA*eA) [compound 1809688] | 22 | 37 |  |  | 
7 | 1652908: 5-10-5 MOE gapmer GGTGAATCTTTATTAAACTA, linkages soooszzzsssssssooss (antisense eG*eGeTeGeA*dA[ms]dT[ms]d[5mC][ms]dT*dT*dT*dA*dT*dT*dA*eAeAe[5mC]*eT*eA) [compound 1652908] | 54 | 18 |  |  | 
8 | 1652913: 5-10-5 MOE gapmer GGTGAATCTTTATTAAACTA, linkages soooszssssszsszooss (antisense eG*eGeTeGeA*dA[ms]dT*d[5mC]*dT*dT*dT*dA[ms]dT*dT*dA[ms]eAeAe[5mC]*eT*eA) [compound 1652913] | 75 | 33 |  |  | 
9 | 1652910: 5-10-5 MOE gapmer GGTGAATCTTTATTAAACTA, linkages sooosszzsssssssooss (antisense eG*eGeTeGeA*dA*dT[ms]d[5mC][ms]dT*dT*dT*dA*dT*dT*dA*eAeAe[5mC]*eT*eA) [compound 1652910] | 82 | 39 |  |  | 
10 | Compound No. 1517578: comparator of WO 2022/066956; CTTGGTGAATCTTTATTAAA, sugar eeeeeddddddddddeeeee, linkages sooosssssssssssooss (MOE gapmer, mixed PS/PO linkages, chemistry not fully specified) [reference compound] | 66 | 47 |  |  | 34
11 | 1809813 (eT*eTeGkG*dT*dG[ms]dA[ms]dA[ms]dT*d[5mC]*dT*dT*dT*dA[ms]kT*kT*eA*eA*eA*e[5mC]; antisense) [Compound 1809813] | 37 | 32 |  |  | 
12 | 1809744: mixed MOE/cEt gapmer CTTGGTGAATCTTTATTAAAC, sugar eeeekkddddddddddeeeee, linkages zsoooszzsssssszsoosz (e[5mC][ms]eT*eTeGkGkT*dG[ms]dA[ms]dA*dT*d[5mC]*dT*dT*dT*dA[ms]dT*eTeAeA*eA[ms]e[5mC]) [compound 1809744] | 19 | 11 |  |  | 
13 | 1652909: 5-10-5 MOE gapmer GGTGAATCTTTATTAAACTA, linkages soooszzzzssssssooss (antisense eG*eGeTeGeA*dA[ms]dT[ms]d[5mC][ms]dT[ms]dT*dT*dA*dT*dT*dA*eAeAe[5mC]*eT*eA) [compound 1652909] | 55 | 23 |  |  | 
14 | 1809691: mixed MOE/cEt gapmer CTTGGTGAATCTTTATTAA, sugar eeeekddddddddddkeek, linkages sosssszzzssssszoss (e[5mC]*eTeT*eG*kG*dT*dG[ms]dA[ms]dA[ms]dT*d[5mC]*dT*dT*dT*dA[ms]kTeT*eA*kA) [compound 1809691] | 27 | 17 |  |  | 
15 | 1809745: mixed MOE/cEt gapmer CTTGGTGAATCTTTATTAAAC, sugar eeeeekddddddddddeeeee, linkages zsoooszzsssssszsoosz (e[5mC][ms]eT*eTeGeGkT*dG[ms]dA[ms]dA*dT*d[5mC]*dT*dT*dT*dA[ms]dT*eTeAeA*eA[ms]e[5mC]) [compound 1809745] | 26 | 16 |  |  | 
16 | 1809690: mixed MOE/cEt gapmer CTTGGTGAATCTTTATTAA, sugar eeeekddddddddddkkek, linkages sosssszzzssssszoss (e[5mC]*eTeT*eG*kG*dT*dG[ms]dA[ms]dA[ms]dT*d[5mC]*dT*dT*dT*dA[ms]kTkT*eA*kA) [compound 1809690] | 26 | 24 |  |  | 
17 | 1652898: 6-10-4 MOE gapmer GGTGAATCTTTATTAAACTA, linkages sooooossssssssssoss (antisense eG*eGeTeGeAeAdT*d[5mC]*dT*dT*dT*dA*dT*dT*dA*dA*eAe[5mC]*eT*eA) [compound 1652898] | 56 | 20 |  |  | 
18 | 1652905: 6-10-4 MOE gapmer GGTGAATCTTTATTAAACTA, linkages sooossssssssssssoss (antisense eG*eGeTeGeA*eA*dT*d[5mC]*dT*dT*dT*dA*dT*dT*dA*dA*eAe[5mC]*eT*eA) [compound 1652905] | 44 | 15 |  |  | 
19 | 1652916: 5-10-5 MOE gapmer GGTGAATCTTTATTAAACTA, linkages soooszzzsssssszooss (antisense eG*eGeTeGeA*dA[ms]dT[ms]d[5mC][ms]dT*dT*dT*dA*dT*dT*dA[ms]eAeAe[5mC]*eT*eA) [compound 1652916] | 128 | 49 |  |  | 
20 | 1652917: 6-10-4 MOE gapmer GGTGAATCTTTATTAAACTA, linkages sooooossssszsszzoss (antisense eG*eGeTeGeAeAdT*d[5mC]*dT*dT*dT*dA[ms]dT*dT*dA[ms]dA[ms]eAe[5mC]*eT*eA) [compound 1652917] | 107 | 41 |  |  | 
21 | 1652914: 5-10-5 MOE gapmer GGTGAATCTTTATTAAACTA, linkages soooszzssssssszooss (antisense eG*eGeTeGeA*dA[ms]dT[ms]d[5mC]*dT*dT*dT*dA*dT*dT*dA[ms]eAeAe[5mC]*eT*eA) [compound 1652914] | 108 | 43 |  |  | 
22 | 1810065: mixed MOE/cEt gapmer CTTGGTGAATCTTTATTAAAC, sugar eeeeekddddddddddeeeee, linkages ssoosszzzssssszsooss (listed as DNA, chemistry not fully specified) [compound 1810065] | 29 | 21 |  |  | 
23 | 1810063: mixed MOE/cEt gapmer CTTGGTGAATCTTTATTAAAC, sugar eeeeeeddddddddddkkeee, linkages ssoosszzzssssszsooss (e[5mC]*eT*eTeGeG*eT*dG[ms]dA[ms]dA[ms]dT*d[5mC]*dT*dT*dT*dA[ms]dT*kTkAeA*eA*e[5mC]) [compound 1810063] | 43 | 40 |  |  | 
24 | 1652900: 6-10-4 MOE gapmer GTGAATCTTTATTAAACTAG, linkages sooooossssssssssoss (antisense eG*eTeGeAeAeTd[5mC]*dT*dT*dT*dA*dT*dT*dA*dA*dA*e[5mC]eT*eA*eG) [compound 1652900] | 83 | 47 |  |  | 
